Test results: patent publication US8987217B2, “Modified saponins for the treatment of fungal infections” (The General Hospital Corporation, priority 2010, dated 2015)
In brackets after ≈: the same amount, converted by molar mass. Entries after “also recorded” stand apart in the source; their conditions may differ. Where two headings read alike, the source gives them in different places.

Tests used:
[1] = test system: C. albicans strain DAY185; test: in vitro antifungal activity (MIC) in the co-inoculation assay, turbidity read visually; assay type: cell-based; conditions: for MIC in vitro: co-inoculation assay, two-fold serial dilutions, C. albicans DAY185; for in vitro growth of C. albicans: screen / dose response
Protocol: (§1) The procedure for the co-inoculation antifungal compound screen were conducted as previously described (Okoli et al., PLoS ONE, 4:e7025 (2009); Tampakakis et al., Nat Protocols, 3:1925-1931 (2008)), using the C. albicans strain DAY185 (Davis et al., Infect Immun, 68:5953-5959 (2000)) and the C. elegans glp-4;sek-1 double mutant.
The determination of the lowest concentration of the selected compounds showing in vitro antifungal activity was accomplished by following the steps detailed in the co-inoculation assay, using two-fold serial dilutions of the test compounds.

C. albicans = test: C. elegans-C. albicans co-inoculation assay, nematode survival; assay type: in vivo; conditions: for maximum nematode survival / promoting C. elegans survival compared with amphotericin B: dose response; for maximum nematode survival: C. albicans-infected C. elegans; for EC50 in vivo: dose that resulted in 50% survival of C. albicans-infected nematodes; for promoting C. elegans survival compared with amphotericin B: FIG. 2A
Protocol: as §1
(§2) This assay allows simultaneous assessment of a compound's potential toxicity and the ability to promote the survival of the nematode in the presence of C. albicans, including modes of action not traditionally considered in antifungal assays such as impeding a fungal virulence factor or promoting host immune response. We performed a screen of 2,560 natural products representing a fraction of the Analyiticon Discovery compound collection (ac-discovery.com) housed at the Broad Institute of Harvard and MIT (Cambridge, Mass.). […] These natural products identified in the primary screen were retested and confirmed (FIG. 1; Table 1). […] Moreover, although the antifungal effects of some of these saponins have been reported (Sata et al., Biosci Biotechnol Biochem, 62:1904-1911 (1998); Ohtani et al., Phytochem, 33:83-86 (1993)), their efficacy against Candida spp. has not been studied.
After confirmation of these hits, dose response experiments were conducted to determine the concentration that provided maximum nematode survival. The compounds conferred a range of nematode survival from 27% (compound A6) to 93% (compounds A2, A7, A24, and A25), however, with the exception of A6, all compounds conferred a nematode survival over 65% (FIG. 1).

C. albicans DAY185 = conditions: at the concentrations used, yeast cells; cited from earlier work
C. elegans = test: toxicity to the nematode in dose response experiments; conditions: for toxicity to the nematode: dose response experiments, higher concentrations
From the text: as §2
Representatives of the saponins family are able to disrupt cellular membranes and the lytic activity on erythrocytes has been used as an assay for some saponins Francis et al., British Journal of Nutrition, 88:587-605 (2002)). This property is derived from the affinity of some saponins for binding cholesterol forming insoluble pores composed of the sterol and saponins (Bangham et al., Nature, 196:952-953(1962); Glauert et al., Nature, 196:953-955 (1962)). […] The dose-response experiments previously used to determine the EC50 and approximate the MIC can also indicate if the saponins maybe toxic to C. elegans and potentially to mammalian cells.

C. albicans strains = test: MIC by standard CLSI microdilution protocol M27-A; assay type: cell-based
Protocol: Using the standard Clinical and Laboratory Standards Institute (CLSI) procedure, the in vitro MIC of these two compounds was determined on the following C. albicans strains: DAY185 (the standard strain used throughout the screen), two fluconazole-resistant strains of C. albicans, and an echinocandin-resistant strain of C. albicans (Table 2).
The minimal inhibitory concentration (MIC) was determined for strains DAY185, 98-145, 95-120 (White et al., Antimicrob Agents Chemother, 46:1704-1713 (2002)), and A15-10 (Garcia-Effron et al., Antimicrob Agents Chemother, 53:112-122 (2009)) spectrophotometrically using RPMI 1640 media (Mediatech, Inc.) following the standard CLSI microdilution protocol M27-A (National Committee for Clinical Laboratory Standards, Reference method for broth dilution susceptibility testing of yeasts. Tentative standard M27-A, Villanova, Pa. (1995)). Biofilm assays using identified compounds were conducted as previously described (Richard et al., Eukaryot Cell, 4:1493-1502 (2005)). The biofilm dry mass was determined by drying the silicone squares in a chemical hood, and weighing the resulting biofilm mass subtracting the previously weighed mass of the silicone square. Biofilm pictures were captured using a confocal laser microscope (TCS NT, Leica Microsystems). Cells were grown at 30° C., exposed to PS for 30 min, and then washed with PBS.

C. albicans isolates = test: interaction between A16 and fluconazole (MIC); assay type: cell-based
From the text: Since compound A16 was able to facilitate uptake of PS compounds, we investigated their ability to increase uptake to the commonly used antifungal agent fluconazole. As indicated above, fluconazole and saponins have different target sites, although they both function by altering the fungal cell membrane. […] One of the molecular mechanisms responsible for increased resistance to fluconazole for isolate 98-145 is a homozygous V437I point mutation in the ERG11 gene (White et al., Antimicrob Agents Chemother, 46:1704-1713 (2002)).

SMILES: C/C=C(/C)C(=O)O[C@H]1CC(C)(C)C[C@H]2C3=CCC4[C@@]5(C)CC[C@H](O[C@@H]6O[C@H](C(=O)O)[C@@H](O[C@@H]7O[C@H](CO)[C@H](O)[C@H](O)[C@H]7O[C@@H]7O[C@H](CO)[C@@H](O)[C@H](O)[C@H]7O)[C@H](O)[C@H]6OC6O[C@@H](C)[C@H](O)[C@@H](O)[C@H]6O)C(C)(C)C5CC[C@@]4(C)[C@]3(C)[C@@H](OC(C)=O)[C@@H](O)[C@@]12COC(C)=O (some centres unmarked) [A25]
- MIC in vitro [1]: 28.7 µg/mL (≈ 22 µM)
- in vitro growth of C. albicans [1]: completely inhibited
- maximum nematode survival (C. albicans): 93%
- EC50 in vivo (C. albicans): 28.7 µg/mL (≈ 22 µM)

SMILES: O=C1OC2(c3cc(I)c(O)c(I)c3Oc3c2cc(I)c(O)c3I)c2c(Cl)c(Cl)c(Cl)c(Cl)c21 [RB, Rose Bengal]
- PDI effect of photosensitizer alone (C. albicans DAY185): no statistically significant PDI effect

SMILES: CC1CC[C@@]2(OC1)O[C@H]1CC3C4C[C@@H](O)C5C[C@@H](O[C@@H]6O[C@H](CO)[C@H](O[C@@H]7O[C@H](CO)[C@@H](O)[C@H](O[C@@H]8OC[C@@H](O[C@@H]9O[C@H](CO)[C@@H](O)[C@H](O)[C@H]9O)[C@H](O)[C@H]8O)[C@H]7O[C@@H]7O[C@H](CO)[C@@H](O)[C@H](O)[C@H]7O)[C@H](O)[C@H]6O)CC[C@]5(C)C4CC[C@]3(C)[C@H]1[C@@H]2C (some centres unmarked) [A24]
- toxicity to the nematode (C. elegans): decrease in nematode survival
- concentrations showing evidence of toxicity to the worms (C. elegans; in vivo): > 27000 ng/mL
- MIC in vitro [1]: 13.3 µg/mL (≈ 11 µM)
- maximum nematode survival (C. albicans): 93%
- EC50 in vivo (C. albicans): 13.3 µg/mL (≈ 11 µM)

SMILES: CC1(C)CC[C@]2(C(=O)O)CC[C@]3(C)C(=CCC4[C@@]5(C)CC[C@H](OC6O[C@H](CO)[C@@H](O)[C@H](O[C@@H]7O[C@H](CO)[C@@H](O)[C@H](O)[C@H]7O)[C@H]6O)C(C)(C)C5CC[C@]43C)[C@@H]2C1 (some centres unmarked) [A6, Arvensoside B]
- maximum nematode survival (C. albicans): 27%

SMILES: C[C@@H]1[C@H](O)[C@@H](C)/C=C/C=C/C=C/C=C/C=C/C=C/C=C/[C@H](O[C@@H]2O[C@H](C)[C@@H](O)[C@H](N)[C@@H]2O)C[C@@H]2O[C@](O)(C[C@@H](O)C[C@@H](O)[C@H](O)CC[C@@H](O)C[C@@H](O)CC(=O)O[C@H]1C)C[C@H](O)[C@H]2C(=O)O [Amphotericin B]
- MIC in vitro [1]: 1.0 µg/mL (≈ 1.08 µM)
- MIC (C. albicans strains; C. albicans DAY185): 2 µg/mL (≈ 2.16 µM)
- MIC (C. albicans strains; echinocandin-resistant strain A15): 2 µg/mL (≈ 2.16 µM)
- MIC (C. albicans strains; fluconazole-resistant strain 95-120): 2 µg/mL (≈ 2.16 µM)
- MIC (C. albicans strains; fluconazole-resistant strain 98-145): 2 µg/mL (≈ 2.16 µM)
- maximum nematode survival (C. albicans): 93%
- EC50 in vivo (C. albicans): 2.0 µg/mL (≈ 2.16 µM)

SMILES: CC1CC[C@@]2(OC1)O[C@H]1CC3C4C[C@@H](O)C5C[C@@H](O[C@@H]6O[C@H](CO)[C@H](O[C@@H]7O[C@H](CO)[C@@H](O)[C@H](O[C@@H]8OC[C@@H](O)[C@H](O)[C@H]8O)[C@H]7O[C@@H]7O[C@H](CO)[C@@H](O)[C@H](O)[C@H]7O)[C@H](O)[C@H]6O)CC[C@]5(C)C4CC[C@]3(C)[C@H]1[C@@H]2C (some centres unmarked) [A8]
- MIC in vitro [1]: 5.8 µg/mL (≈ 5.52 µM)
- EC50 in vivo (C. albicans): 23.1 µg/mL (≈ 22 µM)

SMILES: CC1CC[C@@]2(OC1)O[C@H]1CC3C4CC=C5C[C@@H](O[C@@H]6O[C@H](CO)[C@@H](O[C@@H]7O[C@@H](C)[C@H](O)[C@@H](O)[C@H]7O[C@@H]7O[C@@H](C)[C@H](O)[C@@H](O)[C@H]7O)[C@H](O)[C@H]6O)CC[C@]5(C)C4CC[C@]3(C)[C@H]1[C@@H]2C (some centres unmarked) [A20]
- MIC in vitro [1]: 4.8 µg/mL (≈ 5.52 µM)
- promoting C. elegans survival compared with amphotericin B (C. albicans): as effective as amphotericin B
- EC50 in vivo (C. albicans): 4.8 µg/mL (≈ 5.52 µM)

SMILES: C=Cc1c(C)c2cc3nc(c(CC(=O)O)c4[nH]c(cc5nc(cc1[nH]2)C(C)=C5CC)c(C)c4C(=O)O)[C@@H](CCC(=O)O)[C@@H]3C [ce6, chlorin(e6)]
- PDI effect of photosensitizer alone (C. albicans DAY185): no statistically significant PDI effect

SMILES: OC(Cn1cncn1)(Cn1cncn1)c1ccc(F)cc1F [Fluconazole]
- MIC (C. albicans isolates; Candida albicans, C. albicans isolate DAY185, read-out: MIC of fluconazole alone): 2 µg/mL
- MIC of fluconazole in combination with A16 (C. albicans isolates; DAY185, subinhibitory A16 (4 μg/mL)): 1 µg/mL
- sensitivity to fluconazole treatment in the presence of A16 (C. albicans isolates; two C. albicans isolates with increased resistance to fluconazole): no increase in sensitivity
- MIC (C. albicans strains; Candida albicans, C. albicans DAY185, read-out: MIC): 2 µg/mL (≈ 6.53 µM)
- MIC (C. albicans strains; Candida albicans, echinocandin-resistant strain A15, read-out: MIC): 2 µg/mL (≈ 6.53 µM)
- MIC (C. albicans strains; Candida albicans, fluconazole-resistant strain 95-120, read-out: MIC): 32 µg/mL (≈ 104 µM)
- MIC (C. albicans strains; Candida albicans, fluconazole-resistant strain 98-145, read-out: MIC): > 128 µg/mL

SMILES: C/C=C(/C)C(=O)O[C@H]1[C@H](OC(=O)/C(C)=C\C)[C@]2(CO)[C@H](O)C[C@]3(C)C(=CCC4[C@@]5(C)CC[C@H](OC6OC(C(=O)O)C(O)C(OC7OC(C)C(O)C(OC8OC(CO)C(O)C(O)C8O)C7O)C6O)C(C)(C)C5CC[C@]43C)[C@@H]2CC1(C)C (some centres unmarked) [A7]
- toxicity to the nematode (C. elegans): decrease in nematode survival; also recorded: maybe toxic to the nematode
- MIC in vitro [1]: 3.1 µg/mL (≈ 2.72 µM)
- in vitro growth of C. albicans [1]: completely inhibited
- maximum nematode survival (C. albicans): 93%
- promoting C. elegans survival compared with amphotericin B (C. albicans): as effective as amphotericin B
- EC50 in vivo (C. albicans): 3.1 µg/mL (≈ 2.72 µM)

SMILES: C[C@@H]1O[C@@H](O[C@H]2[C@H](O[C@H]3[C@H](O[C@H]4[C@H](O)[C@@H](O[C@@H]5O[C@H](CO)[C@@H](O)[C@H](O)[C@H]5O)[C@H](O[C@H]5CC[C@@]6(C)C(CC[C@]7(C)C6CC[C@]68OCC9(CCC(C)(C)CC96)[C@H](O)C[C@]87C)C5(C)C)O[C@@H]4C(=O)O)O[C@H](CO)[C@H](O)[C@@H]3O)O[C@@H](C)[C@H](O)[C@H]2O)[C@H](O)[C@H](O)[C@H]1O (some centres unmarked) [A2, Sakurasosaponin]
- MIC in vitro [1]: 27.5 µg/mL (≈ 22 µM)
- in vitro growth of C. albicans [1]: completely inhibited
- maximum nematode survival (C. albicans): 93%
- EC50 in vivo (C. albicans): 55.1 µg/mL (≈ 44 µM)

SMILES: CC[C@H](C)C[C@H](C)CCCCCCCCC(=O)N[C@H]1C[C@@H](O)[C@@H](NCCN)NC(=O)[C@@H]2[C@@H](O)CCN2C(=O)[C@H]([C@H](O)CCN)NC(=O)[C@H]([C@H](O)[C@@H](O)c2ccc(O)cc2)NC(=O)[C@@H]2C[C@@H](O)CN2C(=O)[C@H]([C@@H](C)O)NC1=O [Caspofungin]
- MIC (C. albicans strains; Candida albicans, C. albicans DAY185): 2 µg/mL (≈ 1.83 µM)
- MIC (C. albicans strains; Candida albicans, echinocandin-resistant strain A15): 8 µg/mL (≈ 7.32 µM)
- MIC (C. albicans strains; Candida albicans, fluconazole-resistant strain 95-120): 1 µg/mL (≈ 0.915 µM)
- MIC (C. albicans strains; Candida albicans, fluconazole-resistant strain 98-145): 1 µg/mL (≈ 0.915 µM)

SMILES: CC1CC[C@@]2(OC1)O[C@H]1CC3C4CC=C5C[C@@H](O[C@@H]6O[C@H](CO)[C@@H](O[C@@H]7O[C@@H](C)[C@H](O)[C@@H](O)[C@H]7O)[C@H](O)[C@H]6O[C@@H]6O[C@@H](C)[C@H](O)[C@@H](O)[C@H]6O)CC[C@]5(C)C4CC[C@]3(C)[C@H]1[C@@H]2C (some centres unmarked) [A11]
- MIC in vitro [1]: 38.9 µg/mL (≈ 44.8 µM)
- EC50 in vivo (C. albicans): 38.9 µg/mL (≈ 44.8 µM)
